Measurements taken from paper PMC6389962 (Nature Communications, 2019).

Key:
[1] = tested on: normal mice (C57BL/6J); assay: Blood glucose study in normal fed mice; assay type: in vivo, mouse; design: key to In vivo activity (indicator): + active; +++: + + + more active
Summary of the method: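 Fed male C57BL/6J mice (8 weeks, 20–25 g, n = 3 per group) received a single i.v. dose of 5 µg per mouse (50 nmol kg^−1) in PBS at 10 am. Blood glucose measured before dosing and at 30 min, 1, 2, 4 and 6 h after.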

[2] = in vitro; settings: mouse, plasma
Summary of the method: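 Oligomer at 5 µM final in mouse plasma/PBS pH 7.4 (1:1) at 37 °C, with a plasma-free control defining t = 0. Aliquots quenched in cold acetonitrile at 20 and 60 min; remaining oligomer quantified by LC-MS extracted-ion peak area.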

For `CC[C@H](C)[C@H](NC(=O)[C@H](Cc1ccccc1)NC(=O)[C@H](CCC(=O)O)NC(=O)[C@H](CCCCN)NC(=O)[C@H](C)NC(=O)[C@H](C)NC(=O)[C@H](CCC(N)=O)NC(=O)CNC(=O)[C@H](CCC(=O)O)NC(=O)[C@H](CC(C)C)NC(=O)[C@H](Cc1ccc(O)cc1)NC(=O)[C@H](CO)NC(=O)[C@H](CO)NC(=O)[C@@H](NC(=O)[C@H](CC(=O)O)NC(=O)[C@H](CO)NC(=O)[C@@H](NC(=O)[C@H](Cc1ccccc1)NC(=O)[C@@H](NC(=O)CNC(=O)[C@H](CCC(=O)O)NC(=O)CNC(=O)[C@@H](N)Cc1c[nH]cn1)[C@@H](C)O)[C@@H](C)O)C(C)C)C(=O)N[C@@H](C)C(=O)N[C@@H](Cc1c[nH]c2ccccc12)C(=O)N[C@@H](CC(C)C)C(=O)N[C@H](C(=O)N[C@@H](CCCCN)C(=O)NCC(=O)N[C@@H](CCCNC(=N)N)C(=O)NCC(N)=O)C(C)C` [compound 1, GLP-1-G^2 (GG2)], the “In vivo activity (indicator)” value ([1]; mice, 50 nmol kg−1 i.v.) was “+”, the “effect on blood glucose concentration” value ([1]; normal fed C57BL/6J mice, n = 3, 5 μg per mouse (50 nmol kg−1) i.v., monitored 6 h) was “decreased of blood glucose concentration after 30 min” and the half-life ([2]; pH 7.4) was 16 min. It also gave a remaining at 20 min ([2]; pH 7.4, % remaining analogue) of 34.8% and a remaining at 1 h ([2]; pH 7.4, % remaining analogue) of 23.9%.
